Values of other authors, collected in patent US7807682B2, “Pyridyl cyanoguanidine compounds” (Leo Pharma A/S, priority 2001, dated 2010).

How the values were obtained:
[1] = test system: human tumour cells; settings: nude mice transplanted with human tumour cells, also paclitaxel-resistant tumour cells
[2] = test system: normal human endothelial cells

## N#CNC(=Nc1ccncc1)NCCCCCCOc1ccc(Cl)cc1 [N-(6-(4-chlorophenoxy)hexyl)-N′-cyano-N″-(4-pyridyl)guanidine]
[1]
  antitumour activity in vivo: substantial antitumour activity
[2]
  antiproliferative activity on normal human endothelial cells: considerably less antiproliferative activity
